Data as given in PubChem BioAssay (NCI).
Values joined by “and” are separate entries in the source; they are usually repeats but may differ in a detail not shown here. Identical values can stand only once.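 Protocol summary: plate cells (96-well), add compound at 5 concentrations, incubate 48 h, interpolate endpoints linearly. The concentration for 50% growth inhibition is given as GI50. TGI is the concentration that stops growth completely.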

What was measured:
Test in all cases: inhibition of tumour cell growth, NCI panel, 48 h
SNB-19 CNS = test system: SNB-19 CNS
COLO 205 colon = test system: COLO 205 colon
SW-620 colon = test system: SW-620 colon
SK-MEL-2 melanoma = test system: SK-MEL-2 melanoma
LOX IMVI melanoma = test system: LOX IMVI melanoma
RPMI-8226 leukemia = test system: RPMI-8226 leukemia
SF-268 CNS = test system: SF-268 CNS
HL-60(TB) leukemia = test system: HL-60(TB) leukemia
MDA-N = test system: MDA-N
HOP-92 NSCLC = test system: HOP-92 NSCLC
A549 NSCLC = test system: A549 NSCLC
K-562 leukemia = test system: K-562 leukemia
U251 CNS = test system: U251 CNS
MCF7 breast = test system: MCF7 breast
NCI-H460 lung = test system: NCI-H460 lung
OVCAR-4 ovarian = test system: OVCAR-4 ovarian
T-47D breast = test system: T-47D breast
A498 renal = test system: A498 renal
MOLT-4 leukemia = test system: MOLT-4 leukemia
OVCAR-5 ovarian = test system: OVCAR-5 ovarian
IGROV1 ovarian = test system: IGROV1 ovarian
EKVX NSCLC = test system: EKVX NSCLC
NCI-H23 lung = test system: NCI-H23 lung
SNB-75 CNS = test system: SNB-75 CNS
NCI-H522 lung = test system: NCI-H522 lung
M14 melanoma = test system: M14 melanoma
HT29 colon = test system: HT29 colon
HOP-62 NSCLC = test system: HOP-62 NSCLC
ACHN renal = test system: ACHN renal
KM12 colon = test system: KM12 colon
OVCAR-8 ovarian = test system: OVCAR-8 ovarian
CCRF-CEM leukemia = test system: CCRF-CEM leukemia
NCI-H226 lung = test system: NCI-H226 lung
MDA-MB-231 breast = test system: MDA-MB-231 breast
HCC-2998 colon = test system: HCC-2998 colon
UACC-62 melanoma = test system: UACC-62 melanoma
SK-OV-3 ovarian = test system: SK-OV-3 ovarian
RXF 393 renal = test system: RXF 393 renal
OVCAR-3 ovarian = test system: OVCAR-3 ovarian
PC-3 prostate = test system: PC-3 prostate
SN12C renal = test system: SN12C renal
UO-31 renal = test system: UO-31 renal
CAKI-1 renal = test system: CAKI-1 renal
BT-549 breast = test system: BT-549 breast
HS 578T breast = test system: HS 578T breast
MDA-MB-435 = test system: MDA-MB-435
SK-MEL-5 melanoma = test system: SK-MEL-5 melanoma
786-0 renal = test system: 786-0 renal
DU-145 prostate = test system: DU-145 prostate
HCT-15 colon = test system: HCT-15 colon
SF-539 CNS = test system: SF-539 CNS
HCT-116 colon = test system: HCT-116 colon
UACC-257 melanoma = test system: UACC-257 melanoma
NCI/ADR-RES ovarian = test system: NCI/ADR-RES ovarian
SK-MEL-28 melanoma = test system: SK-MEL-28 melanoma
SF-295 CNS = test system: SF-295 CNS
MALME-3M melanoma = test system: MALME-3M melanoma
SR leukemia = test system: SR leukemia
TK-10 renal = test system: TK-10 renal

Q: What does the source list for `Cc1cc(-c2cc(C)c(O)c(C(C)(C)C)c2)cc(C(C)(C)C)c1O`?
A: TGI (SNB-19 CNS): 27.7 µM and 26.7 µM; TGI (COLO 205 colon): 23.1 µM and 28.9 µM; TGI (SW-620 colon): 25.1 µM and 70 µM; TGI (SK-MEL-2 melanoma): 19.4 µM and 25.8 µM; TGI (LOX IMVI melanoma): 29.4 µM and 23.6 µM; TGI (RPMI-8226 leukemia): 45.9 µM and 50.4 µM; TGI (SF-268 CNS): 23.9 µM and 29 µM; TGI (HL-60(TB) leukemia): 26.7 µM and 32.7 µM; TGI (MDA-N): 21.2 µM and 27.9 µM; GI50 (HOP-92 NSCLC): 15.1 µM and 4.92 µM; TGI (HOP-92 NSCLC): 29.8 µM and 17.5 µM; TGI (A549 NSCLC): 21.4 µM and 21.3 µM; TGI (K-562 leukemia): 25.4 µM and 37.5 µM; TGI (U251 CNS): 22.4 µM and 26.4 µM; TGI (MCF7 breast): 16.7 µM and 19.4 µM; TGI (NCI-H460 lung): 19.4 µM and 17.8 µM; TGI (OVCAR-4 ovarian): 27.6 µM and 23.8 µM; TGI (T-47D breast): 20.1 µM and 20.7 µM; TGI (A498 renal): 21.3 µM and 32.7 µM; TGI (MOLT-4 leukemia): 19.4 µM and 21.5 µM; TGI (OVCAR-5 ovarian): 24.4 µM and 28.4 µM; TGI (IGROV1 ovarian): 41.6 µM and 24.3 µM; TGI (EKVX NSCLC): 22.7 µM and 28.4 µM; TGI (NCI-H23 lung): 26.2 µM and 24.7 µM; TGI (SNB-75 CNS): 25.4 µM and 27 µM; TGI (NCI-H522 lung): 22.5 µM and 28.2 µM; TGI (M14 melanoma): 22.4 µM and 25.4 µM; TGI (HT29 colon): 12.7 µM and 16.4 µM; TGI (HOP-62 NSCLC): 34.5 µM and 31 µM; TGI (ACHN renal): 22.4 µM and 29.1 µM; TGI (KM12 colon): 20.8 µM and 21.3 µM; TGI (OVCAR-8 ovarian): 31.5 µM and 26.1 µM; TGI (CCRF-CEM leukemia): 22.4 µM and 39.1 µM; TGI (NCI-H226 lung): 22.6 µM and 35.9 µM; TGI (MDA-MB-231 breast): 21.4 µM and 26.2 µM; TGI (HCC-2998 colon): 15.4 µM and 18.7 µM; TGI (UACC-62 melanoma): 26.1 µM and 26.8 µM; TGI (SK-OV-3 ovarian): 29.2 µM and 30.4 µM; TGI (RXF 393 renal): 25.5 µM and 26.1 µM; TGI (OVCAR-3 ovarian): 28.4 µM and 27 µM; GI50 (PC-3 prostate): 6.09 µM and 13.7 µM; TGI (PC-3 prostate): 19.2 µM and 26.5 µM; TGI (SN12C renal): 24.8 µM and 26.2 µM; TGI (UO-31 renal): 23 µM and 32 µM; TGI (CAKI-1 renal): 22.7 µM and 27.7 µM; TGI (BT-549 breast): 27.6 µM and 26.5 µM; TGI (HS 578T breast): 27.1 µM and 32.7 µM; TGI (MDA-MB-435): 26.4 µM and 28 µM; TGI (SK-MEL-5 melanoma): 22.3 µM and 28.2 µM; TGI (786-0 renal): 22.6 µM and 25.7 µM; TGI (DU-145 prostate): 25.7 µM and 28.5 µM; GI50 (HCT-15 colon): 5.13 µM and 10.8 µM; TGI (HCT-15 colon): 18.1 µM and 23.5 µM; TGI (SF-539 CNS): 28.2 µM and 35.4 µM; TGI (HCT-116 colon): 19.5 µM and 22.8 µM; TGI (UACC-257 melanoma): 24.1 µM and 24.7 µM; TGI (NCI/ADR-RES ovarian): 23.5 µM and 28.2 µM; TGI (SK-MEL-28 melanoma): 24.5 µM and 34.2 µM; TGI (SF-295 CNS): 23.1 µM and 23.2 µM; TGI (MALME-3M melanoma): 28.3 µM and 41.1 µM; TGI (SR leukemia): 18.1 µM; TGI (TK-10 renal): 24.5 µM and 23.2 µM
